Results reported in patent publication US5405834A, “Prodrug derivatives of thyrotropin-releasing hormone (TRH)” (priority 1989, dated 1995).
Like-named read-outs stand apart in the source and are kept apart here.

Legend:
[1] = molecular target: T1, pyroglutamyl aminopeptidase (PAPase I) (Bos taurus, UniProt A0ABI0NU39); assay: Degradation in buffer pH 7.4 containing pyroglutamyl aminopeptidase; conditions: for half-life: calf
T1 sequence (A0ABI0NU39 1-214): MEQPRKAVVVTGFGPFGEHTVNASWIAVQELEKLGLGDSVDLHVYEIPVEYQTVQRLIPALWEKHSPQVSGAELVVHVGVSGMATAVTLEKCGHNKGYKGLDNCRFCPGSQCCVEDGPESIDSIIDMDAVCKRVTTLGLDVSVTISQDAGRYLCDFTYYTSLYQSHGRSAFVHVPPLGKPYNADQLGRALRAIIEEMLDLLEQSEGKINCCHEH
Method: (§1) Solutions of various compounds of formula I in aqueous buffer solutions or 80% human plasma solutions as well as in a buffer solution (pH 7.4) containing pyroglutamyl aminopeptidase (a calf liver preparation obtained from Boehringer, Mannheim, F.R.G.) were kept at 37° C. The initial concentration of the derivatives was in the range 10^-5 -10^-3 M. At various times an aliquot of the solutions was withdrawn and analyzed by HPLC for remaining (intact) derivative as well as for TRH. For the plasma solutions the aliquot (250 μl) withdrawn was added to 500 μl of a 2% solution of zinc sulphate in methanol-water (1:1 v/v) in order to deproteinize the plasma. After mixing and centrifugation for 3 min at 13,000 rpm, 20 μl of the clear supernatant was analyzed by HPLC as described above. The reaction conditions used for the studies with the pyroglutamyl aminopeptidase enzyme were identical to those previously described by Bundgaard & Moss (1989).
(§2) An HPLC method was used for the determination of TRH and its derivatives. […] For the determination of TRH formed upon hydrolysis of the various derivatives a mobile phase system consisting of acetonitrile-0.1% phosphoric acid (1:20 v/v) containing […] triethylamine was used. The flow rate was 1.5 ml min and the column effluent was monitored at 215 nm. Quantitation of the compounds was done by measuring the peak heights in relation to those of standards chromatographed under the same conditions.

[2] = Apparent partition coefficient between 1-octanol and phosphate buffer pH 7.4; conditions: for logD: 1-octanol/0.02 M phosphate buffer pH 7.4, pH 7.4
Method: (§3) The lipophilicity of the derivatives of the present invention and of TRH was assessed by measuring the apparent partition coefficients (P) of the compounds between 1-octanol and 0.02M phosphate buffer of pH 7.4.

[3] = Chromatographic capacity factor k' by reversed-phase column chromatography (relative lipophilicity); type: physicochemical; conditions: Nova-PAK CN HP reversed-phase column; methanol-0.1% phosphoric acid (1:20 v/v) with 10^-3 M triethylamine
Excerpt: The capacity factor k' of a solute is defined as: k'=(tr -t0)/t0 where tr is the retention time of the solute and t0 is the elution time of the solvent.

[4] = Hydrolysis in aqueous buffer solutions (HPLC); type: physicochemical
Method: as §1, with “Solutions of various compounds of formula I in aqueous buffer solutions or 80% human plasma solutions as well as in a buffer solution (pH 7.4) containing pyroglutamyl aminopeptidase (a calf liver preparation obtained from Boehringer, Mannheim, F.R.G.) were kept at 37° C.” left out
as §2

[5] = in vitro; conditions: for half-life: human, plasma
Method: as §1, §2
For the consideration of the derivatives as prodrugs of TRH a crucial point is evidently their degradation pathways. Ideally, the compounds should be hydrolyzed in plasma at the imidazole-protected moiety, releasing TRH in quantitative amounts.
The reactions taking place in plasma can be illustrated as shown in Scheme 1.

[6] = in vivo, iv; cited from earlier work
[7] = rat, in vivo, iv; cited from earlier work
[8] = physchem; conditions: pH 7.4
Method: as §3

[9] = Percutaneous absorption, in vitro diffusion through excised human skin (Franz cells); conditions: for steady-state flux: 5% prodrug in aqueous solution (pH 6.0)
Method: The feasibility of achieving transdermal delivery of TRH via the prodrugs ot the present invention was evaluated by diffusion experiments in vitro using human skin samples.
Whole abdominal human skin obtained under autopsy was used. The skin was stored at -18° C. and was allowed to thaw gradually at room temperature before use. All subcutaneous fat was removed and the skin cut into pieces. […] The dermal side of the skin was exposed to the receptor medium (5 ml of 0.05M isotonic phosphate buffer solution of pH 7.2) which was stirred magnetically and kept at a constant temperature of 37° C. with a circulating water bath.
The compounds were applied as 5% w/v solutions in 0.05M phosphate buffer (final pH being 6.0) or propylene glycol (100 or 200 μl). At appropriate intervals samples of 1 ml were removed from the receptor phase and replaced with fresh buffer. The samples were immediately analyzed for TRH and prodrug content by HPLC as described above. The permeation studies of each compound in each vehicle were done in triplicate.

Which half-life [1] does the source give for `CCOC(=O)n1cnc(C[C@H](NC(=O)[C@@H]2CCC(=O)N2)C(=O)N2CCC[C@H]2C(N)=O)c1` [C2 H5] here?
Its half-life is 23 min.

And the logD [2]?
The logD was -1.3.

And the “log k'” value [3]?
Its value is 0.85.

What about the “Half-lives at 37° C., pH 7.4 buffer” value [4] of the same molecule?
The value was 14.2 h.

And the half-life [5]?
The half-life was 228 min.

What does the source list for `NC(=O)[C@@H]1CCCN1C(=O)[C@H](Cc1cn(C(=O)OC2CCCCC2)cn1)NC(=O)[C@@H]1CCC(=O)N1` [C6 H10 (cyclohexyl)]?
half-life [1]: 22 min; logD [2]: 0.6; log k' [3]: 1.28; Half-lives at 37° C., pH 7.4 buffer [4]: 36.8 h; half-life [5]: 384 min

For `NC(=O)[C@@H]1CCCN1C(=O)[C@H](Cc1cn(C(=O)OCc2ccccc2)cn1)NC(=O)[C@@H]1CCC(=O)N1` [CH2 C6 H5], which half-life [1] is on record?
Its half-life is 7 min.

What about the logD [2] of the same molecule?
Its logD is -0.11.

And the “Half-lives at 37° C., pH 7.4 buffer” value [4]?
The value was 9.0 h.

Which logD [2] does the source give for `NC(=O)[C@@H]1CCCN1C(=O)[C@H](Cc1cn(C(=O)OCCCl)cn1)NC(=O)[C@@H]1CCC(=O)N1` [CH2 CH2 Cl] here?
The logD was -1.1.

With `CCCCC(CC)COC(=O)n1cnc(C[C@H](NC(=O)[C@@H]2CCC(=O)N2)C(=O)N2CCC[C@H]2C(N)=O)c1` (stereo partly shown) [CH2 CH(C2 H5)C4 H9] as the molecule, how does the logD [2] read?
Its logD is 1.82.

With `CC(C)COC(=O)n1cnc(C[C@H](NC(=O)[C@@H]2CCC(=O)N2)C(=O)N2CCC[C@H]2C(N)=O)c1` [CH2 CH(CH3)2] as the molecule, how does the half-life [1] read?
The half-life was 11 min.

What about the logD [2] of the same molecule?
Its logD is -0.44.

And the “log k'” value [3]?
Its value is 1.09.

What about the “Half-lives at 37° C., pH 7.4 buffer” value [4] of the same molecule?
The value was 19.0 h.

And the half-life [5]?
Its half-life is 258 min.

Which half-life [1] does the source give for `COC(=O)n1cnc(C[C@H](NC(=O)[C@@H]2CCC(=O)N2)C(=O)N2CCC[C@H]2C(N)=O)c1` [CH3] here?
Its half-life is 12 min.

What about the “log P” value ([2]; octanol / 0.02 M phosphate buffer pH 7.4, 21° C.) of the same molecule?
Its value is 1.88.

And the “log k'” value [3]?
The value was 0.71.

And the “Half-lives at 37° C., pH 7.4 buffer” value [4]?
Its value is 9.3 h.

And the half-life [5]?
The half-life was 168 min.

For `CCC(CC)OC(=O)n1cnc(C[C@H](NC(=O)[C@@H]2CCC(=O)N2)C(=O)N2CCC[C@H]2C(N)=O)c1` [CH(C2 H5)2], which logD [2] is on record?
The logD was 0.2.

Which logD [2] does the source give for `CCCC(CCC)OC(=O)n1cnc(C[C@H](NC(=O)[C@@H]2CCC(=O)N2)C(=O)N2CCC[C@H]2C(N)=O)c1` [CH(C3 H7)2] here?
The logD was 1.2.

For `CC(C)OC(=O)n1cnc(C[C@H](NC(=O)[C@@H]2CCC(=O)N2)C(=O)N2CCC[C@H]2C(N)=O)c1` [CH(CH3)2], which half-life [1] is on record?
The half-life was 29 min.

What about the logD [2] of the same molecule?
Its logD is -0.8.

And the “log k'” value [3]?
The value was 0.96.

What about the “Half-lives at 37° C., pH 7.4 buffer” value [4] of the same molecule?
Its value is 35.8 h.

And the half-life [5]?
The half-life was 396 min.

For `NC(=O)[C@@H]1CCCN1C(=O)[C@H](Cc1cnc[nH]1)NC(=O)[C@@H]1CCC(=O)N1` [TRH, pGlu-L-His-L-ProNH2, reference compound], which half-life ([1]; isolated enzyme aminopeptidase, pH 7.4) is on record?
Its half-life is 4 min.

And the “Half-lives at 37° C., pyroglutamyl aminopeptidase” value ([1]; pH 7.4)?
Its value is 4 min.

And the plasma half-life [6]?
Its plasma half-life is 4 to 6 min.

And the plasma half-life [7]?
The plasma half-life was 4 to 6 min.

What about the “log k'” value [3] of the same molecule?
Its value is under 0.4.

And the logD [8]?
Its logD is -2.46.

And the “Half-life at 37° C., 80% v/v human plasma” value [5]?
Its value is 9 min.

What about the “zero-order rate constant of degradation” value [5] of the same molecule?
The value was 7.2e-07 M/min.

And the half-life [5]?
Its half-life is 9 min.

For `CCCCOC(=O)n1cnc(C[C@H](NC(=O)[C@@H]2CCC(=O)N2)C(=O)N2CCC[C@H]2C(N)=O)c1` [n-C4 H9], which half-life [1] is on record?
The half-life was 11 min.

What about the logD [2] of the same molecule?
Its logD is -0.47.

And the “log k'” value [3]?
Its value is 1.07.

What about the “Half-lives at 37° C., pH 7.4 buffer” value [4] of the same molecule?
The value was 19.0 h.

What about the half-life [5] of the same molecule?
Its half-life is 258 min.

With `CCCCCCOC(=O)n1cnc(C[C@H](NC(=O)[C@@H]2CCC(=O)N2)C(=O)N2CCC[C@H]2C(N)=O)c1` [n-C6 H13, N-Hexyloxycarbonyl TRH] as the molecule, how does the half-life [1] read?
The half-life was 8 min.

And the logD [2]?
The logD was 0.71.

What about the “log k'” value [3] of the same molecule?
The value was 1.29.

What about the “Half-lives at 37° C., pH 7.4 buffer” value [4] of the same molecule?
Its value is 17.9 h.

And the half-life [5]?
The half-life was 72 min.

For `CCCCCCCCOC(=O)n1cnc(C[C@H](NC(=O)[C@@H]2CCC(=O)N2)C(=O)N2CCC[C@H]2C(N)=O)c1` [n-C8 H17, N-Octyloxycarbonyl TRH], which half-life [1] is on record?
Its half-life is 24 min.

And the logD [2]?
The logD was 1.88.

And the “log k'” value [3]?
The value was 1.50.

And the steady-state flux ([9]; human skin)?
Its steady-state flux is 0.044±0.006 μmol TRH/h/cm^2.

And the steady-state flux ([9]; human skin, converted from μmol)?
The steady-state flux was 16 μg TRH/h/cm^2.

And the flux ([9]; 5% prodrug in propylene glycol, human skin)?
Its flux is 3.6 μg/h/cm^2.

And the “conversion of applied prodrug to parent TRH during diffusion through skin” value ([9]; human skin samples)?
Its value is “Essentially all”.

What about the “time for 10% degradation” value ([4]; aqueous solution, pH 5.8, 20° C.) of the same molecule?
The value was 76 h.

What about the “Half-lives at 37° C., pH 7.4 buffer” value [4] of the same molecule?
Its value is 17.5 h.

And the half-life [5]?
Its half-life is 30 min.
